System: ANGIOTENSIN II VASOPRESSOR RESPONSE
Assay: AII Challenge: blockade of angiotensin II vasopressor response in conscious SHR
Type: in vivo, rat (Conscious Male Okamoto-Aoki SHR)
Conditions: SHR n=2
Outline: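 Conscious male Okamoto-Aoki SHR (16-20 weeks, ~330 g) cannulated in aorta and vena cava under local procaine; angiotensin II (human) 0.05 and 0.1 ug/kg i.v. given before and at 30-300 min after test compound i.v., i.p. or orally. Rise in systolic pressure (mmHg) expressed as % blockade versus each rat's predose response.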

[1] = 3 mg/kg i.v., AII 0.05 mcg/kg IV, 30 min post dose
[2] = 3 mg/kg i.v., AII 0.05 mcg/kg IV, 60 min post dose
[3] = 3 mg/kg i.v., AII 0.05 mcg/kg IV, 90 min post dose
[4] = 3 mg/kg i.v., AII 0.05 mcg/kg IV, 120 min post dose
[5] = 3 mg/kg i.v., AII 0.05 mcg/kg IV, 180 min post dose
[6] = 3 mg/kg i.v., AII 0.05 mcg/kg IV, 240 min post dose
[7] = 3 mg/kg i.v., AII 0.05 mcg/kg IV, 300 min post dose
[8] = 3 mg/kg i.v., AII 0.1 mcg/kg IV, 30 min post dose
[9] = 3 mg/kg i.v., AII 0.1 mcg/kg IV, 60 min post dose
[10] = 3 mg/kg i.v., AII 0.1 mcg/kg IV, 90 min post dose
[11] = 3 mg/kg i.v., AII 0.1 mcg/kg IV, 120 min post dose
[12] = 3 mg/kg i.v., AII 0.1 mcg/kg IV, 180 min post dose
[13] = 3 mg/kg i.v., AII 0.1 mcg/kg IV, 240 min post dose
[14] = 3 mg/kg i.v., AII 0.1 mcg/kg IV, 300 min post dose
[15] = 3 mg/kg p.o., AII 0.05 mcg/kg IV, 30 min post dose
[16] = 3 mg/kg p.o., AII 0.05 mcg/kg IV, 60 min post dose
[17] = 3 mg/kg p.o., AII 0.05 mcg/kg IV, 90 min post dose
[18] = 3 mg/kg p.o., AII 0.05 mcg/kg IV, 120 min post dose
[19] = 3 mg/kg p.o., AII 0.05 mcg/kg IV, 180 min post dose
[20] = 3 mg/kg p.o., AII 0.05 mcg/kg IV, 240 min post dose
[21] = 3 mg/kg p.o., AII 0.1 mcg/kg IV, 30 min post dose
[22] = 3 mg/kg p.o., AII 0.1 mcg/kg IV, 60 min post dose
[23] = 3 mg/kg p.o., AII 0.1 mcg/kg IV, 90 min post dose
[24] = 3 mg/kg p.o., AII 0.1 mcg/kg IV, 120 min post dose
[25] = 3 mg/kg p.o., AII 0.1 mcg/kg IV, 180 min post dose
[26] = 3 mg/kg p.o., AII 0.1 mcg/kg IV, 240 min post dose

CCCCc1nc2ccc(C(OC)C3CCCO3)cc2c(=O)n1Cc1ccc(-c2ccccc2-c2nn[nH]n2)cc1 (single isomer, unassigned) [Example 24]
% Inhibition of AII vasopressor response [1]: 100% | Average Change (systolic blood pressure response to AII) [1]: 0 mmHg | % Inhibition of AII vasopressor response [2]: 93% | Average Change (systolic blood pressure response to AII) [2]: 2.5 mmHg | % Inhibition of AII vasopressor response [3]: 93% | Average Change (systolic blood pressure response to AII) [3]: 2.5 mmHg | % Inhibition of AII vasopressor response [4]: 87% | Average Change (systolic blood pressure response to AII) [4]: 5 mmHg | % Inhibition of AII vasopressor response [5]: 80% | Average Change (systolic blood pressure response to AII) [5]: 7.5 mmHg | % Inhibition of AII vasopressor response [6]: 80% | Average Change (systolic blood pressure response to AII) [6]: 7.5 mmHg | % Inhibition of AII vasopressor response [7]: 83% | Average Change (systolic blood pressure response to AII) [7]: 6.5 mmHg | % Inhibition of AII vasopressor response [8]: 100% | Average Change (systolic blood pressure response to AII) [8]: 0 mmHg | % Inhibition of AII vasopressor response [9]: 87% | Average Change (systolic blood pressure response to AII) [9]: 5 mmHg | % Inhibition of AII vasopressor response [10]: 87% | Average Change (systolic blood pressure response to AII) [10]: 5 mmHg | % Inhibition of AII vasopressor response [11]: 100% | Average Change (systolic blood pressure response to AII) [11]: 0 mmHg | % Inhibition of AII vasopressor response [12]: 81% | Average Change (systolic blood pressure response to AII) [12]: 7.5 mmHg | % Inhibition of AII vasopressor response [13]: 62% | Average Change (systolic blood pressure response to AII) [13]: 15 mmHg | % Inhibition of AII vasopressor response [14]: 59% | Average Change (systolic blood pressure response to AII) [14]: 16 mmHg | % Inhibition of AII vasopressor response [15]: 64% | Average Change (systolic blood pressure response to AII) [15]: 17.5 mmHg | % Inhibition of AII vasopressor response [16]: 54% | Average Change (systolic blood pressure response to AII) [16]: 22.5 mmHg | % Inhibition of AII vasopressor response [17]: 48% | Average Change (systolic blood pressure response to AII) [17]: 25 mmHg | % Inhibition of AII vasopressor response [18]: 54% | Average Change (systolic blood pressure response to AII) [18]: 22.5 mmHg | % Inhibition of AII vasopressor response [19]: 20% | Average Change (systolic blood pressure response to AII) [19]: 39 mmHg | % Inhibition of AII vasopressor response [20]: 12% | Average Change (systolic blood pressure response to AII) [20]: 42.5 mmHg | % Inhibition of AII vasopressor response [21]: 57% | Average Change (systolic blood pressure response to AII) [21]: 22.5 mmHg | % Inhibition of AII vasopressor response [22]: 38% | Average Change (systolic blood pressure response to AII) [22]: 32.5 mmHg | % Inhibition of AII vasopressor response [23]: 33% | Average Change (systolic blood pressure response to AII) [23]: 35 mmHg | % Inhibition of AII vasopressor response [24]: 29% | Average Change (systolic blood pressure response to AII) [24]: 37.5 mmHg | % Inhibition of AII vasopressor response [25]: 29% | Average Change (systolic blood pressure response to AII) [25]: 37.5 mmHg | % Inhibition of AII vasopressor response [26]: 24% | Average Change (systolic blood pressure response to AII) [26]: 40 mmHg

CCCCc1nc2ccc(C(OC)C3CCCO3)cc2c(=O)n1Cc1ccc(-c2ccccc2-c2nn[nH]n2)cc1 (single isomer, unassigned; isomer 1) [Example 23, 2-Butyl-6-[methoxy(tetrahydro-2-furanyl)methyl-3-[[2'-(1H-tetrazol-5-yl)[1,1'-biphenyl]-4-yl]-methyl]-4(3e,uns/H/ )-quinazolinone isomer 1]
% Inhibition of AII vasopressor response [1]: 97% | Average Change (systolic blood pressure response to AII) [1]: 1 mmHg | % Inhibition of AII vasopressor response [2]: 93% | Average Change (systolic blood pressure response to AII) [2]: 2.5 mmHg | % Inhibition of AII vasopressor response [3]: 79% | Average Change (systolic blood pressure response to AII) [3]: 7.5 mmHg | % Inhibition of AII vasopressor response [4]: 79% | Average Change (systolic blood pressure response to AII) [4]: 7.5 mmHg | % Inhibition of AII vasopressor response [5]: 79% | Average Change (systolic blood pressure response to AII) [5]: 7.5 mmHg | % Inhibition of AII vasopressor response [6]: 60% | Average Change (systolic blood pressure response to AII) [6]: 14 mmHg | % Inhibition of AII vasopressor response [7]: 50% | Average Change (systolic blood pressure response to AII) [7]: 17.5 mmHg | % Inhibition of AII vasopressor response [8]: 96% | Average Change (systolic blood pressure response to AII) [8]: 1.5 mmHg | % Inhibition of AII vasopressor response [9]: 84% | Average Change (systolic blood pressure response to AII) [9]: 6.5 mmHg | % Inhibition of AII vasopressor response [10]: 79% | Average Change (systolic blood pressure response to AII) [10]: 8.5 mmHg | % Inhibition of AII vasopressor response [11]: 81% | Average Change (systolic blood pressure response to AII) [11]: 7.5 mmHg | % Inhibition of AII vasopressor response [12]: 75% | Average Change (systolic blood pressure response to AII) [12]: 10 mmHg | % Inhibition of AII vasopressor response [13]: 50% | Average Change (systolic blood pressure response to AII) [13]: 20 mmHg | % Inhibition of AII vasopressor response [14]: 50% | Average Change (systolic blood pressure response to AII) [14]: 20 mmHg | % Inhibition of AII vasopressor response [15]: 58% | Average Change (systolic blood pressure response to AII) [15]: 20 mmHg | % Inhibition of AII vasopressor response [16]: 21% | Average Change (systolic blood pressure response to AII) [16]: 37.5 mmHg | % Inhibition of AII vasopressor response [17]: 37% | Average Change (systolic blood pressure response to AII) [17]: 30 mmHg | % Inhibition of AII vasopressor response [18]: 47% | Average Change (systolic blood pressure response to AII) [18]: 25 mmHg | % Inhibition of AII vasopressor response [19]: 21% | Average Change (systolic blood pressure response to AII) [19]: 37.5 mmHg | % Inhibition of AII vasopressor response [21]: 18% | Average Change (systolic blood pressure response to AII) [21]: 45 mmHg | % Inhibition of AII vasopressor response [22]: 14% | Average Change (systolic blood pressure response to AII) [22]: 47.5 mmHg | % Inhibition of AII vasopressor response [23]: 32% | Average Change (systolic blood pressure response to AII) [23]: 37.5 mmHg | % Inhibition of AII vasopressor response [24]: 36% | Average Change (systolic blood pressure response to AII) [24]: 35 mmHg | % Inhibition of AII vasopressor response [25]: 9%

CCCCc1nc2ccc(C(O)C3CCN(C)C3=O)cc2c(=O)n1Cc1ccc(-c2ccccc2-c2nn[nH]n2)cc1 (single isomer, unassigned; isomer 1) [Example 32, 2-Butyl-6-[hydroxy(1-methyl-2-oxo-3-pyrrolidinyl)methyl]-3-[[2'-(1e,uns/H/ -tetrazol-5-yl)[1,1'-biphenyl]-4-yl]methyl]-4(3H)-quinazolinone isomer 1]
% Inhibition of AII vasopressor response [1]: 100% | Average Change (systolic blood pressure response to AII) [1]: 0 mmHg | % Inhibition of AII vasopressor response [2]: 89% | Average Change (systolic blood pressure response to AII) [2]: 2.5 mmHg | % Inhibition of AII vasopressor response [3]: 89% | Average Change (systolic blood pressure response to AII) [3]: 2.5 mmHg | % Inhibition of AII vasopressor response [4]: 89% | Average Change (systolic blood pressure response to AII) [4]: 2.5 mmHg | % Inhibition of AII vasopressor response [5]: 68% | Average Change (systolic blood pressure response to AII) [5]: 7.5 mmHg | % Inhibition of AII vasopressor response [6]: 26% | Average Change (systolic blood pressure response to AII) [6]: 17.5 mmHg | % Inhibition of AII vasopressor response [7]: -13% | Average Change (systolic blood pressure response to AII) [7]: 26.5 mmHg | % Inhibition of AII vasopressor response [8]: 100% | Average Change (systolic blood pressure response to AII) [8]: 0 mmHg | % Inhibition of AII vasopressor response [9]: 96% | Average Change (systolic blood pressure response to AII) [9]: 1.5 mmHg | % Inhibition of AII vasopressor response [10]: 88% | Average Change (systolic blood pressure response to AII) [10]: 5 mmHg | % Inhibition of AII vasopressor response [11]: 94% | Average Change (systolic blood pressure response to AII) [11]: 2.5 mmHg | % Inhibition of AII vasopressor response [12]: 53% | Average Change (systolic blood pressure response to AII) [12]: 20 mmHg | % Inhibition of AII vasopressor response [13]: 24% | Average Change (systolic blood pressure response to AII) [13]: 32.5 mmHg | % Inhibition of AII vasopressor response [14]: 0% | Average Change (systolic blood pressure response to AII) [14]: 42.5 mmHg | % Inhibition of AII vasopressor response [15]: 0% | Average Change (systolic blood pressure response to AII) [15]: 32.5 mmHg | % Inhibition of AII vasopressor response [16]: 46% | Average Change (systolic blood pressure response to AII) [16]: 17.5 mmHg | % Inhibition of AII vasopressor response [17]: 62% | Average Change (systolic blood pressure response to AII) [17]: 12.5 mmHg | % Inhibition of AII vasopressor response [18]: 46% | Average Change (systolic blood pressure response to AII) [18]: 17.5 mmHg | % Inhibition of AII vasopressor response [19]: 11% | Average Change (systolic blood pressure response to AII) [19]: 29 mmHg | % Inhibition of AII vasopressor response [20]: 31% | Average Change (systolic blood pressure response to AII) [20]: 22.5 mmHg | % Inhibition of AII vasopressor response [21]: 27% | Average Change (systolic blood pressure response to AII) [21]: 27.5 mmHg | % Inhibition of AII vasopressor response [22]: 27% | Average Change (systolic blood pressure response to AII) [22]: 27.5 mmHg | % Inhibition of AII vasopressor response [23]: 40% | Average Change (systolic blood pressure response to AII) [23]: 22.5 mmHg | % Inhibition of AII vasopressor response [24]: 28% | Average Change (systolic blood pressure response to AII) [24]: 27 mmHg | % Inhibition of AII vasopressor response [25]: 13% | Average Change (systolic blood pressure response to AII) [25]: 32.5 mmHg | % Inhibition of AII vasopressor response [26]: 23% | Average Change (systolic blood pressure response to AII) [26]: 29 mmHg

Reference: patent publication US5288720A, “Angiotensin II receptor blocking 2,3,6 substituted quinazolinones” (American Cyanamid Company, priority 1993, dated 1994)
